Test results published in patent publication US8703917B2, “Epidermal growth factor receptor variants and pharmaceutical compositions thereof” (Shanghai Cancer Institute, priority 2010, dated 2014).

Tests used:
U87MG EGFRvA = test: Cell growth suppression assay (CCK-8) using small molecular inhibitors against EGFR; assay type: cell-based, human
Method: (§1) Methods: cells in the log-phase growth were plated in 96-well plates with 3000 cells/well. […] The medium were replaced with fresh medium containing 10% CCK-8 reagents and incubated for another 2 h. The OD450 value was then measured.

U87MG EGFRwt = test: as above; assay type: cell-based, human; settings: U87MG EGFRwt cells, 72 h with inhibitor, CCK-8 OD450
Method: as §1

COc1cc2ncnc(Nc3cccc(Cl)c3)c2cc1OC [AG1478]
IC50 (U87MG EGFRvA; U87MG EGFRvA cells, 72 h with inhibitor, CCK-8 OD450): 4060 nM | IC50 ratio (EGFRvA/EGFRwt) (U87MG EGFRvA; U87MG EGFRvA versus U87MG EGFRwt): 4.56 | IC50 (U87MG EGFRwt): 890 nM

C#Cc1cccc(Nc2ncnc3cc(OCCOC)c(OCCOC)cc23)c1 [Erlotinib]
sensitivity of cell line stably expressing EGFRvA compared with cell line stably expressing EGFR (U87MG EGFRvA; FIG. 7): lower sensitivity
